According to PubChem BioAssay AID1963827 (Molecular Pharmacology Branch, DTP, NCI, 2024):
pIC50: −log10 of the molar value.

System: 994946-033-R-J1-PDC complex spheroid viability
Assay: Anticancer human tumor 994946-033-R-J1-PDC patient-derived melanoma cell line growth inhibition [POLQ]
Details: for pIC50: curve of first compound; for viability, T/C: stronger effect = lower value; active means viability on the fitted dose curve at most 10% of control; inactive means the rest
Procedure, shortened: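 Growth inhibition in 3D: complex spheroids (tumor PDC, HUVEC, MSC) treated with POLQ inhibitor combinations; where Cmax unknown, highest tested concentration 10 microM, except SN-38 at 1 microM.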

[1] = second compound 0.0316 µM, first compound 0.0316 µM
[2] = second compound 0.0316 µM, first compound 0.1 µM
[3] = second compound 0.0316 µM, first compound 0.316 µM
[4] = second compound 0.0316 µM, first compound 1 µM
[5] = second compound 0.0316 µM, first compound 3.16 µM
[6] = second compound 0.0316 µM, first compound 10 µM
[7] = second compound 0.1 µM, first compound 0.0316 µM
[8] = second compound 0.1 µM, first compound 0.1 µM
[9] = second compound 0.1 µM, first compound 0.316 µM
[10] = second compound 0.1 µM, first compound 1 µM
[11] = second compound 0.1 µM, first compound 3.16 µM
[12] = second compound 0.1 µM, first compound 10 µM
[13] = second compound 0.316 µM, first compound 0.0316 µM
[14] = second compound 0.316 µM, first compound 0.1 µM
[15] = second compound 0.316 µM, first compound 0.316 µM
[16] = second compound 0.316 µM, first compound 1 µM
[17] = second compound 0.316 µM, first compound 3.16 µM
[18] = second compound 0.316 µM, first compound 10 µM
[19] = second compound 1 µM, first compound 0.0316 µM
[20] = second compound 1 µM, first compound 0.1 µM
[21] = second compound 1 µM, first compound 0.316 µM
[22] = second compound 1 µM, first compound 1 µM
[23] = second compound 1 µM, first compound 3.16 µM
[24] = second compound 1 µM, first compound 10 µM
[25] = second compound 3.16 µM, first compound 0.0316 µM
[26] = second compound 3.16 µM, first compound 0.1 µM
[27] = second compound 3.16 µM, first compound 0.316 µM
[28] = second compound 3.16 µM, first compound 1 µM
[29] = second compound 3.16 µM, first compound 3.16 µM
[30] = second compound 3.16 µM, first compound 10 µM
[31] = second compound 10 µM, first compound 0.0316 µM
[32] = second compound 10 µM, first compound 0.1 µM
[33] = second compound 10 µM, first compound 0.316 µM
[34] = second compound 10 µM, first compound 1 µM
[35] = second compound 10 µM, first compound 3.16 µM
[36] = second compound 10 µM, first compound 10 µM
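Further: spheroids exposed to drugs for 7 days.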
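Wherever viability, T/C is given: 100% = DMSO vehicle treated spheroids.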

CCc1cc2c(N3CCc4c(cc(Cn5ccnc5)cc4-c4cn(C)nc4C(F)(F)F)C3=O)ccnc2c(OC)n1 + Nc1ccc(C#CCN(C(=O)Cc2ncc(C(F)(F)F)cc2C(F)(F)F)c2ccc(F)cc2)nn1
inactive: viability, T/C [1] 51.5% | viability, T/C [2] 79.4% | viability, T/C [3] 82% | viability, T/C [4] 88.2% | viability, T/C [5] 79.6% | viability, T/C [6] 79% | viability, T/C [7] 101% | viability, T/C [8] 87.7% | viability, T/C [9] 88.6% | viability, T/C [10] 76.8% | viability, T/C [11] 73.8% | viability, T/C [12] 81.4% | viability, T/C [13] 89.3% | viability, T/C [14] 97.6% | viability, T/C [15] 78.4% | viability, T/C [16] 70.6% | viability, T/C [17] 79.8% | viability, T/C [18] 63.9% | viability, T/C [19] 98.9% | viability, T/C [20] 62.2% | viability, T/C [21] 85.1% | viability, T/C [22] 75% | viability, T/C [23] 86.7% | viability, T/C [24] 87.4% | viability, T/C [25] 75.9% | viability, T/C [26] 78% | viability, T/C [27] 66.9% | viability, T/C [28] 79.4% | viability, T/C [29] 89.2% | viability, T/C [30] 66.7% | viability, T/C [31] 101% | viability, T/C [32] 98.2% | viability, T/C [33] 102% | viability, T/C [34] 89.8% | viability, T/C [35] 80.8% | viability, T/C [36] 70.8%
< 5.00: pIC50 (second compound 0.0316 µM) | pIC50 (second compound 0.1 µM) | pIC50 (second compound 0.316 µM) | pIC50 (second compound 1 µM) | pIC50 (second compound 3.16 µM) | pIC50 (second compound 10 µM)

COc1cc2cc(C(=O)CCC(=O)O)sc2cc1OC + Nc1ccc(C#CCN(C(=O)Cc2ncc(C(F)(F)F)cc2C(F)(F)F)c2ccc(F)cc2)nn1
inactive: viability, T/C [1] 81.7% | viability, T/C [2] 99.5% | viability, T/C [3] 92.4% | viability, T/C [4] 83.2% | viability, T/C [5] 86.7% | viability, T/C [6] 67.9% | viability, T/C [7] 126% | viability, T/C [8] 101% | viability, T/C [9] 102% | viability, T/C [10] 92.1% | viability, T/C [11] 87.2% | viability, T/C [12] 87.1% | viability, T/C [13] 111% | viability, T/C [14] 86% | viability, T/C [15] 87.6% | viability, T/C [16] 109% | viability, T/C [17] 72.3% | viability, T/C [18] 96% | viability, T/C [19] 93.5% | viability, T/C [20] 98% | viability, T/C [21] 80.1% | viability, T/C [22] 79.4% | viability, T/C [23] 88.9% | viability, T/C [24] 95.8% | viability, T/C [25] 116% | viability, T/C [26] 75.5% | viability, T/C [27] 111% | viability, T/C [28] 96.3% | viability, T/C [29] 94.9% | viability, T/C [30] 66.8% | viability, T/C [31] 80.5% | viability, T/C [32] 81.9% | viability, T/C [33] 90.7% | viability, T/C [34] 91.8% | viability, T/C [35] 115% | viability, T/C [36] 78.8%
< 5.00: pIC50 (second compound 0.0316 µM) | pIC50 (second compound 0.1 µM) | pIC50 (second compound 0.316 µM) | pIC50 (second compound 1 µM) | pIC50 (second compound 3.16 µM) | pIC50 (second compound 10 µM)

COc1ccc([C@@H](O)c2cc(-c3ncnc4cc(N5CCOCC5)ccc34)c(F)cc2Cl)nn1 + Nc1ccc(C#CCN(C(=O)Cc2ncc(C(F)(F)F)cc2C(F)(F)F)c2ccc(F)cc2)nn1
5.50: pIC50 (second compound 0.316 µM)
5.17: pIC50 (second compound 0.1 µM)
< 5.00: pIC50 (second compound 1 µM)
5.15: pIC50 (second compound 3.16 µM)
5.34: pIC50 (second compound 10 µM)
5.30: pIC50 (second compound 0.0316 µM)
inactive: viability, T/C [1] 90.3% | viability, T/C [2] 114% | viability, T/C [3] 75.5% | viability, T/C [4] 89% | viability, T/C [5] 52.8% | viability, T/C [6] 45.2% | viability, T/C [7] 91.6% | viability, T/C [8] 112% | viability, T/C [9] 99.4% | viability, T/C [10] 98.7% | viability, T/C [11] 62% | viability, T/C [12] 44.1% | viability, T/C [13] 93.3% | viability, T/C [14] 111% | viability, T/C [15] 116% | viability, T/C [16] 90.6% | viability, T/C [17] 50.7% | viability, T/C [18] 37.3% | viability, T/C [19] 114% | viability, T/C [20] 117% | viability, T/C [21] 115% | viability, T/C [22] 61.4% | viability, T/C [23] 64.5% | viability, T/C [24] 55.1% | viability, T/C [25] 109% | viability, T/C [26] 87% | viability, T/C [27] 102% | viability, T/C [28] 91.3% | viability, T/C [29] 67.5% | viability, T/C [30] 42.5% | viability, T/C [31] 116% | viability, T/C [32] 126% | viability, T/C [33] 102% | viability, T/C [34] 75.7% | viability, T/C [35] 62.2% | viability, T/C [36] 34%
